Results on three molecules are retold here after patent EP4311546A1, “COMBINATION THERAPY FOR MYOPATHIES” (Dynacure, priority 2022, dated 2024).

The test system of one assay is dynamin 2. To be noted: dynamin 2 inhibitor, value stated in the list of known inhibitors; cited from earlier work.
For a further assay, the system named is mitochondrial division. The note with it: mitochondrial division inhibitor; cited from earlier work.
The test system of assay [1] is Mtm1^-/y mice. The experiment in a line: Lifespan / survival of Mtm1-/y mice (XL-CNM model). Format: in vivo. The note with it: at the end of the study (12 weeks old), ASO 3 mg/kg i.p. weekly from 4 weeks, tamoxifen 10 mg/kg of diet. The procedure: (§1) For experiments in mice, the ASOs were injected intraperitonally (i.p.) weekly from 4 weeks to 12 weeks of age at 3 mg/kg.
(§2) For experiments in mice, pellets of diet were supplemented with tamoxifen citrate (SAFE; […]) to achieve 10 mg of tamoxifen free base per kg of chow. Pellets of diet devoid of tamoxifen were used as a control (to be administered with ASO-ctrl).
(§3) Mtm1 deficient mice in the 129Pas genetic background were obtained from Dr. Laporte (IGBMC, Illkirch, France). Wild type males were bred with Mtm1^+/- heterozygous females. The Mtm1^+/y (wild type, i.e. WT) and Mtm1^-/y (mutant) males in the progeny were used in the experiments. The Mtm1^-/y knock-out mice reproduce the hallmarks of XL-CNM patients such as abnormal position of the organelles, defects in the localization of the nuclei and muscle atrophy, associated with progressive muscle weakness including respiratory weakness, leading to death between 6 and 14 weeks of age (Buj-Bello et al., Proc Natl Acad Sci USA, 2002; 99: 15060-15065; Al-Qusairi,et al, Proc Natl Acad Sci USA, 2009; 106: 18763-18768).
Animals were followed for up to 12 weeks old, with weekly recordings of clinical signs and survival. Treatments were started when disease started to manifest, i.e. at 4 weeks of age.
(§4) Weekly i.p. injections of 3 mg/kg of antisense were performed in the Mtm1^+/y and Mtm1^-/y mice, from 4 to 12 weeks of age. […]

For assay [2], the system named is Mtm1^-/y mice. The experiment in a line: Body weight of Mtm1-/y mice. Format: in vivo. To be noted: at 12 weeks, mean ± SD, ASO 3 mg/kg i.p. weekly, tamoxifen 10 mg/kg of diet. The protocol:
as §1, §2, §3
Weekly i.p. injections of 3 mg/kg of antisense were performed in the Mtm1^+/y and Mtm1^-/y mice, from 4 to 12 weeks of age. Alongside these injections, mice were fed pellets of diets containing tamoxifen citrate (10 mg/kg) or devoid of tamoxifen. […]

Assay [3] relates to Mtm1^-/y mice. The experiment in a line: Hanging test (whole-body strength) in Mtm1-/y mice. Format: in vivo. To be noted: at 12 weeks of age, mean ± SD, cut-off 60 seconds, ASO 3 mg/kg i.p. weekly, tamoxifen 10 mg/kg of diet. The protocol:
as §1, §2
as §3, with “18763-18768). […]” for “18763-18768).”
Whole-body strength of mice was evaluated using the hanging test. […] The latency time for the mouse to fall in the cage was measured, with a cut-off time of 60 seconds. […] The maximum hanging time was recorded. […]

Assay [4] relates to Mtm1^-/y mice. The experiment in a line: Disease Severity Score (DSS) in Mtm1-/y mice. Format: in vivo. To be noted: at 12 weeks old, score 0 (no disease) to 5 (most severe), ASO 3 mg/kg i.p. weekly, tamoxifen 10 mg/kg of diet. The procedure:
as §1, §2, §3, §4
Disease Severity Score was calculated to monitor the clinical appearance of mice (n = 10 per group). […]

For another assay, the system named is Dnm2 mRNA. The experiment in a line: Dnm2 mRNA expression by RT-qPCR in C2C12 cells. The note with it: C2C12 mouse myoblast cells, 24 hrs, 20 µM (with PBS control, or with ASO-ctrl). Format: cell-based. The protocol: For experiments in mouse immortalized myoblasts (C2C12 cells), the ASOs were electroporated at 2 µM in 2 mm cuvettes, at 150V for 5 ms (one pulse) for 2 million cells in a volume of 400 µl PBS, or in 4mm cuvettes, at 300V for 5 ms (one pulse) for 4 million cells in a volume of 800 µl PBS. Table 2. Antisense oligonucleotides
For experiments conducted in mouse immortalized myoblasts (C2C12 cells), 4-hydroxytamoxifen (5 mg/ml solution, Sigma #SML-1666) was used. The stock solution at 13mM in ethanol:isopropanol (95:5) was diluted in cell culture medium to obtain a working concentration of 20 µM. For vehicle control cells (no treatment), ethanol:isopropanol (95:5) was added to the cell culture medium.
The […] immortalized myoblast cells were cultured in DMEM with 1g/l glucose (Gibco) with 20% FBS (Gibco) + 40 µg/ml Gentamycin (Gibco). The cells were electroporated with either PBS, ASO-ctrl or ASO-Dnm2 at 2 µM, and/or treated with 4-OH-tamoxifen at 20 µM in the cell culture medium, as described in 1.1. The experiment was done in duplicate wells, in 6-well plates. After 24 hrs of treatment, cells were collected and either RNA was extracted for RT-qPCR or protein was extracted for Western Blot. […]
A general note: In qPCR the cycle at which signal appears reflects the starting amount.

Another assay has as its system DNM2. The experiment in a line: DNM2 protein expression by Western blot in C2C12 cells. To be noted: C2C12 cells, 5, 10 or 20 µM (with PBS control, or with ASO-ctrl). Format: cell-based, mouse. A general note: In western blotting, separated proteins are transferred to a membrane and probed.

pIC50: −log10 of the molar value.

On to `O=C(NN=Cc1cc(O)c(O)cc1O)c1cc2ccccc2cc1O` [hydroxy-Dynasore, 3-hydroxy-N'-[(2,4,5-trihydroxyphenyl)methylidene]naphthalene-2-carbohydrazide], for which, in the assay with dynamin 2, the pIC50 is 5.59.
As for `COc1cc(-n2c(S)nc3ccccc3c2=O)c(Cl)cc1Cl` [m-divi 1, 3-(2,4-Dichloro-5-methoxyphenyl)-2-sulfanylquinazolin-4(3H)-one], the pIC50 in the assay on mitochondrial division was 5.00.
As to `CC/C(=C(\c1ccccc1)c1ccc(OCCN(C)C)cc1)c1ccccc1` [tamoxifen, 2-[4-[(Z)-1,2-diphenylbut-1-enyl]phenoxy]-N,N-dimethylethanamine], the survival rate in the assay on Mtm1^-/y mice [1] turned out to be 70%. Also, the body weight with Mtm1^-/y mice [2] is 15.3 ± 0.4 g. The “holding time (hanging test)” value in the assay with Mtm1^-/y mice [3] came to 35.3 ± 24.4 s. For the same molecule, the “Disease Severity Score (DSS), mean score” value in the assay with Mtm1^-/y mice [4] was 3.3. Further, the “Dnm2 mRNA expression” value in the assay with Dnm2 mRNA is “did not reduce”. Also, the DNM2 protein expression entry in the assay on DNM2 is reported as “did not reduce”.

By pIC50 is commonly meant the negative decadic logarithm of the IC50, by convention in mol/L.
